Test results as given in patent US20260327214A1, “1,3,4-OXADIAZOLE DERIVATIVE COMPOUNDS AS HISTONE DEACETYLASE 6 INHIBITOR, AND USES THEREOF” (CHONG KUN DANG PHARMACEUTICAL CORP., priority 2022, published 2026).

How the values were obtained:
human recombinant HDAC6 = target: T1, human recombinant HDAC6 (Homo sapiens, UniProt Q9UBN7); experiment: HDAC6 enzyme activity inhibition test (HDAC Fluorometric Drug Discovery Kit); assay type: biochemical; conditions: for HDAC6 selectivity (fold): HDAC6 over HDAC1; for IC50: human recombinant HDAC6, same protocol as HDAC1
T1 construct: purchased Calbiochem 382180
T1 sequence (Q9UBN7 1-1215): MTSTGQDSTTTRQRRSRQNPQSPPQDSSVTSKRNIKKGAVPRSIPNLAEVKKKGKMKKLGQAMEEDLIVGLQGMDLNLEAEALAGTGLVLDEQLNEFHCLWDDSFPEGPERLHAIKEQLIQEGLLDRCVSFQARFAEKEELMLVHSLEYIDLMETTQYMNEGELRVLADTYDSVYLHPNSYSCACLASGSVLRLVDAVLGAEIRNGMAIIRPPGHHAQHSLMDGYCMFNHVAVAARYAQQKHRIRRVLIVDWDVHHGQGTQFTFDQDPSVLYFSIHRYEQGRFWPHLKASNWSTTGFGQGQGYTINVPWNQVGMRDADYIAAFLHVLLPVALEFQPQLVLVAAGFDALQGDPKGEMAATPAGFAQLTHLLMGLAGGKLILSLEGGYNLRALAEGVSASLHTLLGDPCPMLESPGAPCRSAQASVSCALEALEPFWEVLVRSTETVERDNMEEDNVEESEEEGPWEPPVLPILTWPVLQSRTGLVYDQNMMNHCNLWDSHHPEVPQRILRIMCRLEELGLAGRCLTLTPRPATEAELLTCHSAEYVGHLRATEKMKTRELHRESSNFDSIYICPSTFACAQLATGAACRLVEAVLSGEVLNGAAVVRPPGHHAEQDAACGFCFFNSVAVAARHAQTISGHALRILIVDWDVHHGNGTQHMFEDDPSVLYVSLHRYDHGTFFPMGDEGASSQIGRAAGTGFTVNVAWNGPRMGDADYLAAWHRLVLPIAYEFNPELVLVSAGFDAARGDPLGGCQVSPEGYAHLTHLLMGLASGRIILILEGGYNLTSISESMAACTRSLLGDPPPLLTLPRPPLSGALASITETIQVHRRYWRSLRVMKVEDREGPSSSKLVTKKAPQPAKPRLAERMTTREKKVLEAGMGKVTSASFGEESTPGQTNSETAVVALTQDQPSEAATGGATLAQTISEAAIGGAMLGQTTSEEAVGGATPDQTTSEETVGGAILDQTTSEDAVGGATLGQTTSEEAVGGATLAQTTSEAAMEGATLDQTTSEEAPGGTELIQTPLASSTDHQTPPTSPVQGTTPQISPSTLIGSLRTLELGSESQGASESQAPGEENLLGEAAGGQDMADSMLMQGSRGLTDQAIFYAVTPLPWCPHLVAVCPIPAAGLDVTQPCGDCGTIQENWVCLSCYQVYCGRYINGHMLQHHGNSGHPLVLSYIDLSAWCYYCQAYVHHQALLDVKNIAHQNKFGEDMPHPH
Experimental: (§1) The following experiment was conducted to confirm the HDAC6 selectivity of the compound represented by Chemical Formula I of the present invention through the HDAC1 and HDAC6 enzyme activity inhibition test.
(§2) HDAC enzyme activity was measured using HDAC Fluorometric Drug Discovery Kit (BML-AK511, 516) manufactured by Enzo Life Science. For the HDAC1 enzyme activity test, human recombinant HDAC1 (BML-SE456) was used as an enzyme source and Fluor de Lys-®-″SIRT1 (BNL-KI177) was used as a substrate. The 5-fold diluted compound was dispensed in a 96-well plate, 0.3 μg of enzyme and 10 μM substrate were added to each well and reacted at 30° C. for 60 minutes, and Fluor de Lys® Developer II(BML-KI176) was added and reacted for 30 minutes to complete the reaction. Then, the fluorescence value (Ex 360, Em 460) was measured using a multiplate reader (Flexstation 3, Molecular Device). The HDAC6 enzyme was tested using the same protocol as the HDAC1 enzyme activity test method employing human recombinant HDAC6 (382180) from Calbiochem. For the final result, each […] value was calculated using the GraphPad Prism 4.0 program.

human recombinant HDAC1 = target: T2, human recombinant HDAC1 (Homo sapiens, UniProt Q13547); experiment: HDAC1 enzyme activity inhibition test (HDAC Fluorometric Drug Discovery Kit); assay type: biochemical; conditions: 30° C., 60 minutes, 10 μM substrate
T2 construct: purchased Enzo Life Science BML-SE456
Experimental: as §1, §2

T2 sequence (Q13547 whole entry): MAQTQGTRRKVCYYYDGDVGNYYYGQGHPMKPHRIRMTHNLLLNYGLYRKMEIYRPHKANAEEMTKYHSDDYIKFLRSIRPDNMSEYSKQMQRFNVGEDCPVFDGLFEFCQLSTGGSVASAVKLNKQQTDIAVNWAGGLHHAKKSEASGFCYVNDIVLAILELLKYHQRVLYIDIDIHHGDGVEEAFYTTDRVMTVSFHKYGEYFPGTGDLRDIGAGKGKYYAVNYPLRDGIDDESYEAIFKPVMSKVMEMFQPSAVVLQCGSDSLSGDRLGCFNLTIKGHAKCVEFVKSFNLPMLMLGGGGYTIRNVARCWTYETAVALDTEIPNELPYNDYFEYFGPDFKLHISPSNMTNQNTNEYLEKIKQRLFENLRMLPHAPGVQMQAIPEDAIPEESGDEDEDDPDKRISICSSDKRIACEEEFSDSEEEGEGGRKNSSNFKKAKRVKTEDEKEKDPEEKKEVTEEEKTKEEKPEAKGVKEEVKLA

CC(C)N1CCN(c2cccc(-c3nn(Cc4ccc(-c5nnc(C(F)F)o5)cn4)c(=S)o3)c2)CC1 [Compound 76, 3-[[5-[5-(difluoromethyl)-1,3,4-oxadiazol-2-yl]-2-pyridyl]methyl]-5-[3-(4-isopropylpiperazin-1-yl)phenyl]-1,3,4-oxadiazol-2-thione]
HDAC6 selectivity (fold) (human recombinant HDAC6): 945 fold
IC50 (human recombinant HDAC6): 52.9 nM
IC50 (human recombinant HDAC1): > 50000 nM

FC(F)c1nnc(-c2ccc(Cn3nc(-c4cccc(CN5CC[C@H](F)C5)c4)oc3=S)nc2)o1 [Compound 90, 3-[[5-[5-(difluoromethyl)-1,3,4-oxadiazol-2-yl]-2-pyridyl]methyl]-5-[3-[[(3S)-3-fluoropyrrolidin-1-yl]methyl]phenyl]-1,3,4-oxadiazol-2-thione]
HDAC6 selectivity (fold) (human recombinant HDAC6): 835 fold
IC50 (human recombinant HDAC6): 59.9 nM
IC50 (human recombinant HDAC1): > 50000 nM

CC(C)N1CCN(c2cccc(-c3nn(Cc4ncc(-c5nnc(C(F)F)o5)cc4F)c(=S)o3)n2)CC1 [Compound 104, 3-[[5-[5-(difluoromethyl)-1,3,4-oxadiazol-2-yl]-3-fluoro-2-pyridyl]methyl]-5-[6-(4-isopropylpiperazin-1-yl)-2-pyridyl]-1,3,4-oxadiazol-2-thione]
HDAC6 selectivity (fold) (human recombinant HDAC6): 1163 fold
IC50 (human recombinant HDAC6): 43 nM
IC50 (human recombinant HDAC1): > 50000 nM

O=c1oc(-c2ccc(CN3CCC3)cc2)nn1Cc1ccc(-c2nnc(C(F)F)o2)cn1 [Compound 132, 5-[4-(azetidin-1-ylmethyl)phenyl]-3-[[5-[5-(difluoromethyl)-1,3,4-oxadiazol-2-yl]-2-pyridyl]methyl]-1,3,4-oxadiazol-2-one]
HDAC6 selectivity (fold) (human recombinant HDAC6): 484 fold
IC50 (human recombinant HDAC6): 103 nM
IC50 (human recombinant HDAC1): > 50000 nM

Fc1cc(-c2nnc(C(F)F)o2)cnc1Cn1nc(-c2cnccn2)oc1=S [Compound 53, 3-[[5-[5-(difluoromethyl)-1,3,4-oxadiazol-2-yl]-3-fluoro-2-pyridyl]methyl]-5-pyrazine-2-yl-1,3,4-oxadiazol-2-thione]
HDAC6 selectivity (fold) (human recombinant HDAC6): 560 fold
IC50 (human recombinant HDAC6): 89.3 nM
IC50 (human recombinant HDAC1): > 50000 nM

CN(C)Cc1ccc(-c2nn(Cc3ccc(-c4nnc(C(F)F)o4)cn3)c(=S)o2)s1 [Compound 121, 3-[[5-[5-(difluoromethyl)-1,3,4-oxadiazol-2-yl]-2-pyridyl]methyl]-5-[5-[(dimethylamino)methyl]-2-thienyl]-1,3,4-oxadiazol-2-thione]
HDAC6 selectivity (fold) (human recombinant HDAC6): 639 fold
IC50 (human recombinant HDAC6): 78.2 nM
IC50 (human recombinant HDAC1): > 50000 nM

FC(F)c1nnc(-c2ccc(Cn3nc(-c4cccnc4)oc3=S)nc2)o1 [Compound 52, 3-[[5-[5-(difluoromethyl)-1,3,4-oxadiazol-2-yl]-2-pyridyl]methyl]-5-(3-pyridyl)-1,3,4-oxadiazol-2-thione]
HDAC6 selectivity (fold) (human recombinant HDAC6): 473 fold
IC50 (human recombinant HDAC6): 106 nM
IC50 (human recombinant HDAC1): > 50000 nM

Fc1cc(-c2nnc(C(F)F)o2)cnc1Cn1nc(-c2ccc(CN3CC[C@H](F)C3)cc2)oc1=S [Compound 114, 3-[[5-[5-(difluoromethyl)-1,3,4-oxadiazol-2-yl]-3-fluoro-2-pyridyl]methyl]-5-[4-[[(3S)-3-fluoropyrrolidin-1-yl]methyl]phenyl]-1,3,4-oxadiazol-2-thione]
HDAC6 selectivity (fold) (human recombinant HDAC6): 824 fold
IC50 (human recombinant HDAC6): 60.7 nM
IC50 (human recombinant HDAC1): > 50000 nM

CN1CCc2cc(-c3nn(Cc4ccc(-c5nnc(C(F)F)o5)cn4)c(=S)o3)sc2C1 [Compound 139, 3-[[5-[5-(difluoromethyl)-1,3,4-oxadiazol-2-yl]-2-pyridyl]methyl]-5-(6-methyl-5,7-dihydro-4H-thieno[2,3-c]pyridin-2-yl)-1,3,4-oxadiazol-2-thione]
HDAC6 selectivity (fold) (human recombinant HDAC6): 552 fold
IC50 (human recombinant HDAC6): 90.6 nM
IC50 (human recombinant HDAC1): > 50000 nM

FC(F)c1nnc(-c2ccc(Cn3nc(-c4ccc(CN5CCN(C6CCC6)CC5)cc4)oc3=S)nc2)o1 [Compound 78, 5-[4-[(4-cyclobutylpiperazin-1-yl)methyl]phenyl]-3-[[5-[5-(difluoromethyl)-1,3,4-oxadiazol-2-yl]-2-pyridyl]methyl]-1,3,4-oxadiazol-2-thione]
HDAC6 selectivity (fold) (human recombinant HDAC6): 498 fold
IC50 (human recombinant HDAC6): 100 nM
IC50 (human recombinant HDAC1): > 50000 nM
